Data reported in the supplement of paper PMC10307832.

Legend:
Assay in all cases: relative viability (nuclei count vs DMSO), 5 days (fraction); higher = more cells survive
Dactolisib + Trametinib = compound: Cn1c(=O)n(-c2ccc(C(C)(C)C#N)cc2)c2c3cc(-c4cnc5ccccc5c4)ccc3ncc21 [Dactolisib] + CC(=O)Nc1cccc(-n2c(=O)n(C3CC3)c(=O)c3c(Nc4ccc(I)cc4F)n(C)c(=O)c(C)c32)c1 [Trametinib] (partner 0.02 µM)
Method in brief: (§1)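 Each reported value is a median over duplicate plates. It expresses relative viability: treated-well nuclei count divided by vehicle-well nuclei count. Lung cancer cell lines in 1536-well plates were dosed by pin tool a day after seeding, alone with one drug or with a fixed anchor-drug dose plus five library-drug doses (not always all listed) in √10 steps, and nuclei were counted after 5 days.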

Dactolisib + OSI-027 = compound: Cn1c(=O)n(-c2ccc(C(C)(C)C#N)cc2)c2c3cc(-c4cnc5ccccc5c4)ccc3ncc21 [Dactolisib] + COc1cccc2cc(-c3nc([C@H]4CC[C@H](C(=O)O)CC4)n4ncnc(N)c34)[nH]c12 [OSI-027] (partner 0.5 µM)
Method in brief: as §1

Dactolisib + Crizotinib = compound: Cn1c(=O)n(-c2ccc(C(C)(C)C#N)cc2)c2c3cc(-c4cnc5ccccc5c4)ccc3ncc21 [Dactolisib] + C[C@@H](Oc1cc(-c2cnn(C3CCNCC3)c2)cnc1N)c1c(Cl)ccc(F)c1Cl [Crizotinib] (partner 1 µM)
Method in brief: as §1

AZ505 + Olaparib = compound: C1CCC(CC1)N(CCNCCC2=C3C(=C(C=C2)O)NC(=O)CO3)C(=O)CCNCCC4=CC(=C(C=C4)Cl)Cl [AZ505] + O=C(c1cc(Cc2n[nH]c(=O)c3ccccc23)ccc1F)N1CCN(C(=O)C2CC2)CC1 [Olaparib] (partner 8 µM)
Method in brief: as §1

Row | Cell Line | relative viability (Dactolisib + Trametinib; first compound 0.002 µM) | relative viability (Dactolisib + Trametinib; first compound 0.006325 µM) | relative viability (Dactolisib + Trametinib; first compound 0.02 µM) | relative viability (Dactolisib + Trametinib; first compound 0.06325 µM) | relative viability (Dactolisib + Trametinib; first compound 0.2 µM) | relative viability (Dactolisib + OSI-027; first compound 0.002 µM) | relative viability (Dactolisib + OSI-027; first compound 0.006325 µM) | relative viability (Dactolisib + OSI-027; first compound 0.02 µM) | relative viability (Dactolisib + OSI-027; first compound 0.06325 µM) | relative viability (Dactolisib + OSI-027; first compound 0.2 µM) | relative viability (Dactolisib + Crizotinib; first compound 0.002 µM) | relative viability (Dactolisib + Crizotinib; first compound 0.006325 µM) | relative viability (Dactolisib + Crizotinib; first compound 0.02 µM) | relative viability (Dactolisib + Crizotinib; first compound 0.06325 µM) | relative viability (Dactolisib + Crizotinib; first compound 0.2 µM) | relative viability (AZ505 + Olaparib; first compound 0.08 µM) | relative viability (AZ505 + Olaparib; first compound 0.253 µM) | relative viability (AZ505 + Olaparib; first compound 0.8 µM) | relative viability (AZ505 + Olaparib; first compound 2.53 µM) | relative viability (AZ505 + Olaparib; first compound 8 µM)
1 | NCI-H2347 | 0.277 | 0.262 | 0.263 | 0.158 | 0.295 | 0.407 | 0.52 | 0.635 | 0.41 | 0.332 | 0.836 | 0.619 | 0.613 | 0.46 | 0.464 | 0.554 | 0.505 | 0.489 | 0.489 | 0.52
2 | NCI-H2009 | 0.276 | 0.272 | 0.213 | 0.154 | 0.126 | 0.74 | 0.659 | 0.754 | 0.404 | 0.266 | 1.01 | 1.05 | 1.02 | 0.986 | 0.566 | 0.64 | 0.675 | 0.647 | 0.652 | 0.629
3 | HCC-15 | 0.383 | 0.346 | 0.365 | 0.215 | 0.162 | 0.686 | 0.678 | 0.683 | 0.473 | 0.317 | 0.826 | 0.767 | 0.788 | 0.556 | 0.366 | 0.639 | 0.723 | 0.75 | 0.73 | 0.736
4 | HCC-44 | 1.14 | 1.13 | 1.08 | 0.952 | 0.737 | 0.492 | 0.559 | 0.634 | 0.439 | 0.466 | 0.879 | 0.763 | 0.816 | 0.446 | 0.414 | 0.928 | 1.01 | 1.02 | 1 | 1.05
5 | COR-L23 | 0.602 | 0.453 | 0.305 | 0.176 | 0.144 | 0.917 | 0.796 | 0.59 | 0.289 | 0.259 | 0.787 | 0.604 | 0.619 | 0.283 | 0.165 | 0.282 | 0.344 | 0.32 | 0.374 | 0.38
6 | HCC-78 | 0.726 | 0.851 | 0.69 | 0.445 | 0.312 | 0.439 | 0.411 | 0.376 | 0.396 | 0.332 | 0.316 | 0.331 | 0.285 | 0.266 | 0.222 | – | – | 0.878 | 0.829 | 1.03
7 | NCI-H727 | – | 0.42 | 0.358 | 0.401 | 0.373 | 0.519 | 0.435 | 0.538 | 0.47 | 0.4 | 0.915 | 0.671 | 0.666 | 0.354 | 0.374 | 0.653 | 0.675 | 0.667 | 0.724 | 0.662
8 | NCI-H2087 | 0.229 | 0.217 | 0.214 | 0.127 | 0.114 | 1.05 | 0.572 | 0.53 | 0.43 | 0.252 | 0.952 | 0.85 | 1.04 | 0.63 | 0.785 | 0.515 | 0.536 | 0.552 | 0.629 | 0.611
9 | BEN | 0.925 | 0.952 | 0.959 | 0.61 | 0.411 | 0.302 | 0.33 | 0.302 | 0.32 | 0.315 | 0.785 | 0.77 | 0.859 | 0.467 | 0.296 | 0.998 | 1.04 | 1.04 | 1.04 | 1.21
10 | LCLC-103H | 0.664 | 0.604 | 0.581 | 0.515 | 0.42 | 0.509 | 0.5 | 0.465 | 0.519 | 0.431 | 1.03 | 0.985 | 1.08 | 0.675 | 0.461 | 0.677 | 0.729 | 0.729 | 0.734 | 0.717
11 | EKVX | 0.368 | 0.377 | 0.258 | 0.229 | 0.213 | 0.678 | 0.655 | 0.697 | 0.536 | 0.389 | 0.971 | 0.879 | 0.923 | 0.686 | 0.341 | – | 0.895 | 0.764 | 0.874 | 0.916
12 | LXF-289 | 0.709 | 0.629 | 0.633 | 0.559 | 0.379 | 0.93 | 0.865 | 0.821 | 0.692 | 0.684 | 0.822 | 0.779 | 0.896 | 0.942 | 0.708 | 0.988 | 1.11 | 1.01 | 1.05 | 1.01
13 | NCI-H650 | 1.04 | 0.906 | 0.942 | 0.527 | 0.424 | 0.509 | 0.518 | 0.641 | 0.592 | 0.372 | 0.627 | 0.747 | 0.752 | 0.519 | 0.393 | 0.386 | 0.462 | 0.425 | 0.497 | 0.356
14 | NCI-H1650 | 0.63 | 0.614 | 0.503 | 0.339 | 0.22 | 0.775 | 0.598 | 0.593 | 0.455 | 0.282 | 0.832 | 0.944 | 0.718 | 0.823 | 0.559 | 0.723 | 0.803 | 0.735 | 0.727 | 0.853
15 | NCI-H2085 | 0.712 | 0.455 | 0.241 | 0.266 | 0.231 | 0.737 | 0.609 | 0.663 | 0.319 | 0.269 | 0.904 | 0.763 | 0.668 | 0.523 | 0.305 | 0.715 | 0.797 | 0.654 | 0.735 | 0.729
16 | LC-2-ad | 0.838 | 0.883 | 0.99 | 0.969 | 0.863 | 0.938 | 0.844 | 0.769 | 0.582 | 0.546 | 0.403 | 0.477 | 0.505 | 0.338 | 0.4 | 0.683 | 0.696 | 0.648 | 0.713 | 0.741
